Reference: US20060223763A1, “C-glycoside compounds for stimulating the synthesis of glycosaminoglycans” (L'OREAL S.A., priority 2000, published 2006)
Where “and” joins values, the source holds several entries; their conditions need not be identical. Equal entries are not always repeated.

Tested on: normal human dermal fibroblast cultures
Assay: incorporation of radioactive glucosamine into the matrix neosynthesized by fibroblast cultures (GAG/hyaluronic acid synthesis)
Type: cell-based
Protocol: The study was performed by measuring the incorporation of radioactive glucosamine into the matrix neosynthesized by normal human dermal fibroblast cultures. The incorporation of radioactive glucosamine indicated a specific neosynthesis of glycosaminoglycans via incorporation of the acetylated form of this glucosamine.
The fibroblast cultures were prepared according to the standard methods of cell culturing, i.e., in MEM/M199 medium sold by Gibco, in the presence of sodium bicarbonate (1.87 mg/ml), L-glutamine (2 mM), penicillin (50 IU/ml) and 10% foetal calf serum (Gibco).
The test was performed on a cell culture at 80% confluence, on 96-well plates. The C-glycoside derivative at concentrations of 0.1 to 30 mM was placed in contact with the cells for 48 hours. Labeling with radioactive glucosamine (D-[6-H^3]-glucosamine, Amersham TRK398 (814 Gbq/mmol, 22 Ci/mmol)) was performed for 24 hours.
The level of radioactive glucosamine incorporated was measured at the end of the test by adsorption of the anionic molecules onto Q-sepharose beads followed by desorption of the sparingly and moderately anionic molecules with 6M urea plus 0.2M NaCl. Once washed, the radioactivity incorporated into the highly cationic molecules remaining on the support was counted.
The results were evaluated relative to a control consisting of cells that have not been treated with the C-glycoside derivative of formula (I).
A positive control (TGFβ at 10 ng/ml) known to stimulate GAG synthesis was introduced into the test as positive reference.

[1] = 0.1 mM, 48 hours contact, labeling 24 hours
[2] = 0.3 mM, 48 hours contact, labeling 24 hours
[3] = 1 mM, 48 hours contact, labeling 24 hours
[4] = concentrations of 0.3, 1 and 3 mM
[5] = 3 mM, 48 hours contact, labeling 24 hours
[6] = 0.4 mM, 48 hours contact, labeling 24 hours
[7] = 2 mM, 48 hours contact, labeling 24 hours
[8] = 10 mM, 48 hours contact, labeling 24 hours
[9] = 0.5 mM, 48 hours contact, labeling 24 hours
[10] = TGFβ at 10 ng/ml, positive control, two values given

Molecule | % (relative to untreated control) [1] | VALUE (radioactive glucosamine incorporated) [1] | % (relative to untreated control) [2] | VALUE (radioactive glucosamine incorporated) [2] | % (relative to untreated control) [3] | VALUE (radioactive glucosamine incorporated) [3] | effect on incorporation of radioactive glucosamine [4] | further results
O=C(C[C@@H]1OC[C@@H](O)[C@H](O)[C@H]1O)c1ccccc1 [1-Phenyl-2-(C-β-D-Xylopyranoside)Ethan-1-One] | 120% | 10113 cpm | 102% | 8545 cpm | 95% | 7941 cpm | stimulate the incorporation of radioactive glucosamine | 
CC(C[C@@H]1OC[C@@H](O)[C@H](O)[C@H]1O)NCCCO (stereo partly drawn) [1-[2-(3-Hydroxypropylamio)Propyl]-C-β-D-Xylopyranose] | 110% | 11656 cpm | 109% | 11585 cpm | 140% | 14832 cpm | stimulate the incorporation of radioactive glucosamine | 
CC(O)C[C@@H]1OC[C@@H](O)[C@H](O)[C@H]1O (stereo partly drawn) [C-β-D-Xylopyranoside-2-hydroxypropane, C-β-D-xylopyranoside-2-hydroxypropane] |  |  | 139% | 11634 cpm | 169% | 14209 cpm |  | % (relative to untreated control) [5]: 218%; VALUE (radioactive glucosamine incorporated) [5]: 18271 cpm; effect on incorporation of radioactive glucosamine (concentrations of 0.1, 0.3 and 1 mM): stimulates the incorporation of radioactive glucosamine
CC(=O)C[C@@H]1OC[C@@H](O)[C@H](O)[C@H]1O [C-β-D-Xylopyranoside-n-propan-2-one, C-β-D-xylopyranoside-n-propan-2-one] |  |  |  |  |  |  |  | % (relative to untreated control) [6]: 141%; VALUE (radioactive glucosamine incorporated) [6]: 8564 cpm; % (relative to untreated control) [7]: 131%; VALUE (radioactive glucosamine incorporated) [7]: 11014 cpm; % (relative to untreated control) [8]: 161%; VALUE (radioactive glucosamine incorporated) [8]: 12507 cpm and 9811 cpm; effect on incorporation of radioactive glucosamine (concentrations of 0.4, 2 and 10 mM): stimulates the incorporation of radioactive glucosamine
O=C[C@H](O)[C@@H](O)[C@H](O)CO [D-Xylose, reference compound] | 102% | 6586 cpm |  |  |  |  |  | % (relative to untreated control) [9]: 86%; VALUE (radioactive glucosamine incorporated) [9]: 4063 cpm
TGFβ: positive control (TGFβ at 10 ng/ml) known to stimulate GAG synthesis |  |  |  |  |  |  |  | % (relative to untreated control) [10]: 348% and 454%; VALUE (radioactive glucosamine incorporated) [10]: 27124 cpm and 34865 cpm
